Assay results from EP4417602A1, “SUBSTITUTED PYRAZOLE CARBOXAMIDES, SALTS THEREOF AND THEIR USE AS HERBICIDALLY ACTIVE SUBSTANCES” (Bayer AG, priority 2023, dated 2024).

test system: DIGSA; assay: A. Herbicidal pre-emergence action on harmful plants (Tables A); format: in vivo, Digitaria sanguinalis; conditions: application rate 320 g/ha; Table A12b
Excerpt: (§1) Seeds of mono- and dicotyledonous weed plants were sown in plastic pots (double sowings with one species of mono- and one species of dicotyledonous weed plants per pot), in sandy loam, and covered with soil. The compounds according to the invention, formulated in the form of wettable powders (WP) or as emulsifiable concentrates (EC), were applied to the surface of the covering soil as aqueous suspension or emulsion, with the addition of 0.5% of an additive, at an application rate of 6001 of water per hectare (converted). Following treatment, the pots were placed in a greenhouse and kept under optimum growth conditions for the test plants. The visual grading of the damage to the test plants was carried out after ca. 3 weeks in comparison to untreated controls (herbicidal effect in percent (%): 100% effect = plants have died off, 0% effect = as control plants). Tables A1 to A12, below, show the effects of selected compounds of the general formula (I) according to table 1 on various harmful plants and an application rate corresponding to 1280 g/ha or below obtained by the experimental procedure mentioned above. Table A1: pre-emergence activity at 1280g/ha against ABUTH in %

| SMILES | pre-emergence activity against DIGSA [%] |
| --- | --- |
| COCc1nn(C)cc1C(=O)N1CCCC1Cc1ccccc1C (racemic) [Example I-078] | 90 |
| CCOCc1nn(C)cc1C(=O)N1CCC1Cc1ccccc1F (racemic) [Example I-105] | 100 |
| CCOCc1nn(C)cc1C(=O)N1CCC1Cc1ccccc1Cl (racemic) [Example I-106] | 90 |

same assay, conditions: application rate 1280 g/ha; Table A12a

| SMILES | pre-emergence activity against DIGSA [%] |
| --- | --- |
| COCc1nn(C)cc1C(=O)N1CCCC1Cc1ccccc1C (racemic) [Example I-078] | 90 |
| CCOCc1nn(C)cc1C(=O)N1CCC1Cc1ccccc1F (racemic) [Example I-105] | 100 |
| CCOCc1nn(C)cc1C(=O)N1CCC1Cc1ccccc1Cl (racemic) [Example I-106] | 100 |

test system: SETVI; assay: as above; format: in vivo, Setaria viridis; conditions: application rate 80 g/ha; visual grading after ca. 3 weeks vs untreated controls; 100% = plants have died off, 0% = as control plants
Excerpt: as §1

| SMILES | pre-emergence activity against SETVI [%] |
| --- | --- |
| CCOCc1nn(C)cc1C(=O)N1CCC1Cc1ccccc1Cl (racemic) [Example I-106] | 90 |

same assay, conditions: application rate 320 g/ha; visual grading after ca. 3 weeks vs untreated controls; 100% = plants have died off, 0% = as control plants

| SMILES | pre-emergence activity against SETVI [%] |
| --- | --- |
| COCc1nn(C)cc1C(=O)N1CCCC1Cc1ccccc1C (racemic) [Example I-078] | 90 |
| CCOCc1nn(C)cc1C(=O)N1CCC1Cc1ccccc1Cl (racemic) [Example I-106] | 100 |

same assay, conditions: application rate 1280 g/ha; visual grading after ca. 3 weeks vs untreated controls; 100% = plants have died off, 0% = as control plants

| SMILES | pre-emergence activity against SETVI [%] |
| --- | --- |
| COCc1nn(C)cc1C(=O)N1CCCC1Cc1ccccc1C (racemic) [Example I-078] | 100 |
| CCOCc1nn(C)cc1C(=O)N1CCC1Cc1ccccc1F (racemic) [Example I-105] | 100 |
| CCOCc1nn(C)cc1C(=O)N1CCC1Cc1ccccc1Cl (racemic) [Example I-106] | 100 |

test system: STEME; assay: B. Herbicidal post-emergence action on harmful plants (Tables B); format: in vivo, Stellaria media; conditions: application rate 1280 g/ha; Table B6
Description: (§2) Seeds of mono- and dicotyledonous weed plants were placed in plastic pots in sandy loam soil (doubly sown with in each case one species of mono- or dicotyledonous weed plants per pot), covered with soil and cultivated in a greenhouse under controlled growth conditions. 2 to 3 weeks after sowing, the test plants were treated at the one-leaf stage. The compounds of the invention, formulated in the form of wettable powders (WP) or as emulsion concentrates (EC), were applied onto the green parts of the plants as aqueous suspension or emulsion with addition of 0.5% additive at a water application rate of 600 liters per hectare (converted). After the test plants had been kept in the greenhouse under optimum growth conditions for about 3 weeks, the activity of the preparations was rated visually in comparison to untreated controls. For example, 100% activity = the plants have died, 0% activity = like control plants. Tables B1 to B12, below, show the effects of selected compounds of the general formula (I) according to table 1 on various harmful plants and an application rate corresponding to 1280 g/ha or below obtained by the experimental procedure mentioned above. Table B1a: post-emergence activity at 1280g/ha against ABUTH in %

| SMILES | post-emergence activity against STEME [%] |
| --- | --- |
| CCOCc1nn(C)cc1C(=O)N1CCC1Cc1ccccc1F (racemic) [Example I-105] | 90 |

test system: LOLRI; assay: A. Herbicidal pre-emergence action on harmful plants (Tables A); format: in vivo, Lolium rigidum; conditions: application rate 320 g/ha; visual grading after ca. 3 weeks vs untreated controls; 100% = plants have died off, 0% = as control plants
Excerpt: as §1

| SMILES | pre-emergence activity against LOLRI [%] |
| --- | --- |
| COCc1nn(C)cc1C(=O)N1CCCC1Cc1ccccc1C (racemic) [Example I-078] | 100 |

same assay, conditions: application rate 1280 g/ha; visual grading after ca. 3 weeks vs untreated controls; 100% = plants have died off, 0% = as control plants

| SMILES | pre-emergence activity against LOLRI [%] |
| --- | --- |
| COCc1nn(C)cc1C(=O)N1CCCC1Cc1ccccc1C (racemic) [Example I-078] | 100 |
| CCOCc1nn(C)cc1C(=O)N1CCC1Cc1ccccc1F (racemic) [Example I-105] | 90 |
| CCOCc1nn(C)cc1C(=O)N1CCC1Cc1ccccc1Cl (racemic) [Example I-106] | 90 |

test system: VERPE; assay: B. Herbicidal post-emergence action on harmful plants (Tables B); format: in vivo, Veronica persica; conditions: application rate 1280 g/ha; Table B11a
Description: as §2

| SMILES | post-emergence activity against VERPE [%] |
| --- | --- |
| COCc1nn(C)cc1C(=O)N1CCCC1Cc1ccccc1C (racemic) [Example I-078] | 90 |

test system: STEME; assay: A. Herbicidal pre-emergence action on harmful plants (Tables A); format: in vivo, Stellaria media; conditions: application rate 80 g/ha; visual grading after ca. 3 weeks vs untreated controls; 100% = plants have died off, 0% = as control plants
Excerpt: as §1

| SMILES | pre-emergence activity against STEME [%] |
| --- | --- |
| COCc1nn(C)cc1C(=O)N1CCCC1Cc1ccccc1C (racemic) [Example I-078] | 90 |

same assay, conditions: application rate 320 g/ha; visual grading after ca. 3 weeks vs untreated controls; 100% = plants have died off, 0% = as control plants

| SMILES | pre-emergence activity against STEME [%] |
| --- | --- |
| COCc1nn(C)cc1C(=O)N1CCCC1Cc1ccccc1C (racemic) [Example I-078] | 90 |

same assay, conditions: application rate 1280 g/ha; visual grading after ca. 3 weeks vs untreated controls; 100% = plants have died off, 0% = as control plants

| SMILES | pre-emergence activity against STEME [%] |
| --- | --- |
| COCc1nn(C)cc1C(=O)N1CCCC1Cc1ccccc1C (racemic) [Example I-078] | 90 |
| CCOCc1nn(C)cc1C(=O)N1CCC1Cc1ccccc1Cl (racemic) [Example I-106] | 90 |

test system: POAAN; assay: B. Herbicidal post-emergence action on harmful plants (Tables B); format: in vivo, Poa annua; conditions: application rate 1280 g/ha; Table B7a
Description: as §2

| SMILES | post-emergence activity against POAAN [%] |
| --- | --- |
| COCc1nn(C)cc1C(=O)N1CCCC1Cc1ccccc1C (racemic) [Example I-078] | 90 |
| CCOCc1nn(C)cc1C(=O)N1CCC1Cc1ccccc1F (racemic) [Example I-105] | 90 |

test system: ABUTH; assay: as above; format: in vivo, Abutilon theophrasti; conditions: application rate 1280 g/ha; Table B1a
Description: as §2

| SMILES | post-emergence activity against ABUTH [%] |
| --- | --- |
| COCc1nn(C)cc1C(=O)N1CCCC1Cc1ccccc1C (racemic) [Example I-078] | 90 |

test system: POAAN; assay: A. Herbicidal pre-emergence action on harmful plants (Tables A); format: in vivo, Poa annua; conditions: application rate 320 g/ha; Table A7b
Excerpt: as §1

| SMILES | pre-emergence activity against POAAN [%] |
| --- | --- |
| COCc1nn(C)cc1C(=O)N1CCCC1Cc1ccccc1C (racemic) [Example I-078] | 100 |
| CCOCc1nn(C)cc1C(=O)N1CCC1Cc1ccccc1Cl (racemic) [Example I-106] | 100 |

same assay, conditions: application rate 1280 g/ha; visual grading after ca. 3 weeks vs untreated controls; 100% = plants have died off, 0% = as control plants

| SMILES | pre-emergence activity against POAAN [%] |
| --- | --- |
| COCc1nn(C)cc1C(=O)N1CCCC1Cc1ccccc1C (racemic) [Example I-078] | 100 |
| CCOCc1nn(C)cc1C(=O)N1CCC1Cc1ccccc1F (racemic) [Example I-105] | 100 |
| CCOCc1nn(C)cc1C(=O)N1CCC1Cc1ccccc1Cl (racemic) [Example I-106] | 100 |

test system: ECHCG; assay: B. Herbicidal post-emergence action on harmful plants (Tables B); format: in vivo, Echinochloa crus-galli; conditions: application rate 1280 g/ha; Table B2a
Description: as §2

| SMILES | post-emergence activity against ECHCG [%] |
| --- | --- |
| COCc1nn(C)cc1C(=O)N1CCCC1Cc1ccccc1C (racemic) [Example I-078] | 90 |

test system: AMARE; assay: as above; format: in vivo, Amaranthus retroflexus; conditions: application rate 1280 g/ha; Table B8
Description: as §2

| SMILES | post-emergence activity against AMARE [%] |
| --- | --- |
| CCOCc1nn(C)cc1C(=O)N1CCC1Cc1ccccc1F (racemic) [Example I-105] | 90 |
| CCOCc1nn(C)cc1C(=O)N1CCC1Cc1ccccc1Cl (racemic) [Example I-106] | 90 |

test system: ECHCG; assay: A. Herbicidal pre-emergence action on harmful plants (Tables A); format: in vivo, Echinochloa crus-galli; conditions: application rate 80 g/ha; visual grading after ca. 3 weeks vs untreated controls; 100% = plants have died off, 0% = as control plants
Excerpt: as §1

| SMILES | pre-emergence activity against ECHCG [%] |
| --- | --- |
| CCOCc1nn(C)cc1C(=O)N1CCC1Cc1ccccc1Cl (racemic) [Example I-106] | 90 |

same assay, conditions: application rate 320 g/ha; visual grading after ca. 3 weeks vs untreated controls; 100% = plants have died off, 0% = as control plants

| SMILES | pre-emergence activity against ECHCG [%] |
| --- | --- |
| COCc1nn(C)cc1C(=O)N1CCCC1Cc1ccccc1C (racemic) [Example I-078] | 90 |
| CCOCc1nn(C)cc1C(=O)N1CCC1Cc1ccccc1F (racemic) [Example I-105] | 90 |
| CCOCc1nn(C)cc1C(=O)N1CCC1Cc1ccccc1Cl (racemic) [Example I-106] | 90 |

same assay, conditions: application rate 1280 g/ha; visual grading after ca. 3 weeks vs untreated controls; 100% = plants have died off, 0% = as control plants

| SMILES | pre-emergence activity against ECHCG [%] |
| --- | --- |
| COCc1nn(C)cc1C(=O)N1CCCC1Cc1ccccc1C (racemic) [Example I-078] | 100 |
| CCOCc1nn(C)cc1C(=O)N1CCC1Cc1ccccc1F (racemic) [Example I-105] | 100 |
| CCOCc1nn(C)cc1C(=O)N1CCC1Cc1ccccc1Cl (racemic) [Example I-106] | 100 |

test system: ALOMY; assay: as above; format: in vivo, Alopecurus myosuroides; conditions: application rate 1280 g/ha; Table A9a
Excerpt: as §1

| SMILES | pre-emergence activity against ALOMY [%] |
| --- | --- |
| COCc1nn(C)cc1C(=O)N1CCCC1Cc1ccccc1C (racemic) [Example I-078] | 90 |

test system: MATIN; assay: as above; format: in vivo, Matricaria inodora; conditions: application rate 320 g/ha; visual grading after ca. 3 weeks vs untreated controls; 100% = plants have died off, 0% = as control plants
Excerpt: as §1

| SMILES | pre-emergence activity against MATIN [%] |
| --- | --- |
| COCc1nn(C)cc1C(=O)N1CCCC1Cc1ccccc1C (racemic) [Example I-078] | 90 |

same assay, conditions: application rate 1280 g/ha; visual grading after ca. 3 weeks vs untreated controls; 100% = plants have died off, 0% = as control plants

| SMILES | pre-emergence activity against MATIN [%] |
| --- | --- |
| COCc1nn(C)cc1C(=O)N1CCCC1Cc1ccccc1C (racemic) [Example I-078] | 90 |
